Results from patent US9682976B2, “Protein kinase C inhibitors and uses thereof” (Rigel Pharmaceuticals, Inc., priority 2012, dated 2017).

Test system: PKC mediated IL-2 production
Experiment: IL-2 ELISA, human primary T cell, anti CD3+CD28+
Format: cell-based
Conditions: Homo sapiens, T-cell, 24 h, human primary T cells stimulated with αCD3 and αCD28, 24 hours
How it was run: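 IL-2 was quantified by ELISA in 24 h supernatants from primary human T cells given a 1 h compound pre-treatment at 37° C. These cells had been expanded from blood mononuclear cells on αCD3/αCD28 with IL-2, and the IL-2 was removed by washing. Stimulation used plate-bound αCD3 ([…]) plus αCD28 (5 μg/ml); the counter assay used PMA (0.5 ng/ml) with ionomycin (0.1 uM) instead.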

Row | EC50 [nM] | Structure (SMILES)
1 | 500 to 1000 | CC1(C)Oc2cc(Nc3ncc(F)c(N[C@@H]4C[C@@H]5CCCN5C(C)(C)C4)n3)ccc2N(CC2CC2)C1=O [Compound 105, 4-(cyclopropylmethyl)-7-((4-(((7R,8aS)-5,5-dimethyloctahydroindolizin-7-yl)amino)-5-fluoropyrimidin-2-yl)amino)-2,2-dimethyl-2H-benzo[b][1,4]oxazin-3(4H)-one]
2 | 100 to 500 | CC1(C)C[C@H](Nc2nc(Nc3ccc(N4CCOCC4)c(C#N)c3)ncc2F)C[C@@H]2CCCN21 [Compound 106, 5-((4-(((7R,8aS)-5,5-dimethyloctahydroindolizin-7-yl)amino)-5-fluoropyrimidin-2-yl)amino)-2-morpholinobenzonitrile]
3 | 100 to 500 | CC1(C)C[C@H](Nc2nc(Nc3ccc(N4CCC(O)CC4)c(C#N)c3)ncc2F)C[C@@H]2CCCN21 [Compound 107, 5-((4-(((7R,8aS)-5,5-dimethyloctahydroindolizin-7-yl)amino)-5-fluoropyrimidin-2-yl)amino)-2-(4-hydroxypiperidin-1-yl)benzonitrile]
4 | < 100 | CN1CCN(c2ccc(Nc3ncc(F)c(N[C@@H]4C[C@@H]5CCCN5C(C)(C)C4)n3)cc2C#N)CC1 [Compound 108, 5-((4-(((7R,8aS)-5,5-dimethyloctahydroindolizin-7-yl)amino)-5-fluoropyrimidin-2-yl)amino)-2-(4-methylpiperazin-1-yl)benzonitrile]
5 | 100 to 500 | Cn1nnn(-c2cc(Nc3ncc(F)c(N[C@@H]4C[C@@H]5CCCN5C(C)(C)C4)n3)c(F)cc2O[C@@H]2CCOC2)c1=O [Compound 109, 1-(5-((4-(((7R,8aS)-5,5-dimethyloctahydroindolizin-7-yl)amino)-5-fluoropyrimidin-2-yl)amino)-4-fluoro-2-(((R)-tetrahydrofuran-3-yl)oxy)phenyl)-4-methyl-1,4-dihydro-5H-tetrazol-5-one]
6 | 100 to 500 | Cn1nnn(-c2cc(Nc3ncc(F)c(N[C@@H]4C[C@@H]5CCCN5C(C)(C)C4)n3)c(F)cc2O[C@H]2CCOC2)c1=O [Compound 110, 1-(5-((4-(((7R,8aS)-5,5-dimethyloctahydroindolizin-7-yl)amino)-5-fluoropyrimidin-2-yl)amino)-4-fluoro-2-(((S)-tetrahydrofuran-3-yl)oxy)phenyl)-4-methyl-1,4-dihydro-5H-tetrazol-5-one]
7 | 100 to 500 | Cn1nnn(-c2cc(Nc3ncc(C#N)c(N[C@@H]4C[C@@H]5CCCN5C(C)(C)C4)n3)c(F)cc2OC2CCOC2)c1=O (stereo partly drawn) [Compound 111]
8 | 100 to 500 | Cn1nnn(-c2cc(Nc3ncc(C#N)c(N[C@@H]4C[C@@H]5CCCN5C(C)(C)C4)n3)c(F)cc2O[C@H]2CCOC2)c1=O [Compound 112]
9 | 100 to 500 | Cn1nnn(-c2cc(Nc3ncc(C#N)c(N[C@@H]4C[C@@H]5CCCN5C(C)(C)C4)n3)c(F)cc2OC2COC2)c1=O [Compound 113, 4-(((7R,8aS)-5,5-dimethyloctahydroindolizin-7-yl)amino)-2-((2-fluoro-5-(4-methyl-5-oxo-4,5-dihydro-1H-tetrazol-1-yl)-4-(oxetan-3-yloxy)phenyl)amino)pyrimidine-5-carbonitrile]
10 | 500 to 1000 | Cn1nnn(-c2cc(Nc3ncc(F)c(N[C@@H]4C[C@@H]5CCCN5C(C)(C)C4)n3)c(F)cc2OC2CCOCC2)c1=O [Compound 114, 1-(5-((4-(((7R,8aS)-5,5-dimethyloctahydroindolizin-7-yl)amino)-5-fluoropyrimidin-2-yl)amino)-4-fluoro-2-((tetrahydro-2H-pyran-4-yl)oxy)phenyl)-4-methyl-1,4-dihydro-5H-tetrazol-5-one]
11 | 500 to 1000 | Cn1nnn(-c2cc(Nc3ncc(C#N)c(N[C@@H]4C[C@@H]5CCCN5C(C)(C)C4)n3)c(F)cc2OC2CCOCC2)c1=O [Compound 115, 4-(((7R,8aS)-5,5-dimethyloctahydroindolizin-7-yl)amino)-2-((2-fluoro-5-(4-methyl-5-oxo-4,5-dihydro-1H-tetrazol-1-yl)-4-((tetrahydro-2H-pyran-4-yl)oxy)phenyl)amino)pyrimidine-5-carbonitrile]
12 | 100 to 500 | CC1(C)C[C@H](Nc2nc(Nc3ccc(N4CCN(C5COC5)CC4)c(C#N)c3)ncc2F)C[C@@H]2CCCN21 [Compound 116]
13 | 1000 to 10000 | Cn1nnn(-c2cc(Nc3ncc(F)c(N[C@@H]4C[C@@H]5CCCN5C(C)(C)C4)n3)ccc2N2CCN(C3COC3)CC2)c1=O [Compound 117, 1-(5-((4-(((7R,8aS)-5,5-dimethyloctahydroindolizin-7-yl)amino)-5-fluoropyrimidin-2-yl)amino)-2-(4-(oxetan-3-yl)piperazin-1-yl)phenyl)-4-methyl-1,4-dihydro-5H-tetrazol-5-one]
14 | 100 to 500 | CC1(C)C[C@H](Nc2nc(Nc3ccc(OC4CCNCC4)c(C(F)(F)F)c3)ncc2F)C[C@@H]2CCCN21 [Compound 118, N^4-((7R,8aS)-5,5-dimethyloctahydroindolizin-7-yl)-5-fluoro-N^2-(4-(piperidin-4-yloxy)-3-(trifluoromethyl)phenyl)pyrimidine-2,4-diamine]
15 | < 100 | CC1(C)C[C@H](Nc2nc(Nc3ccc(O[C@@H]4CCNC[C@H]4F)c(C(F)(F)F)c3)ncc2F)C[C@@H]2CCCN21 [Compound 119]
16 | 100 to 500 | CC1(C)C[C@H](Nc2nc(Nc3ccc(OC4CCN(C5COC5)CC4)c(C(F)(F)F)c3)ncc2F)C[C@@H]2CCCN21 [Compound 120]
17 | < 100 | CC1(C)C[C@H](Nc2nc(Nc3ccc(O[C@H]4CCNC[C@@H]4F)c(C(F)(F)F)c3)ncc2F)C[C@@H]2CCCN21 [Compound 121]
18 | 100 to 500 | CC1(C)C[C@H](Nc2nc(Nc3ccc(O[C@@H]4CCN(C5COC5)C[C@H]4F)c(C(F)(F)F)c3)ncc2F)C[C@@H]2CCCN21 [Compound 122]
19 | < 100 | CC1(C)C[C@H](Nc2nc(Nc3ccc(O[C@H]4CCNC[C@@H]4F)c(Cl)c3)ncc2F)C[C@@H]2CCCN21 [Compound 123]
20 | 100 to 500 | CC1(C)C[C@H](Nc2nc(Nc3ccc(OC4CCNCC4O)c(Cl)c3)ncc2F)C[C@@H]2CCCN21 (stereo partly drawn) [Compound 124]
21 | 1000 to 10000 | CC1(C)C[C@H](Nc2nc(Nc3ccc4c(c3)-n3nnnc3C(CO)(CO)O4)ncc2F)C[C@@H]2CCCN21 [Compound 125, (8-((4-(((7R,8aS)-5,5-dimethyloctahydroindolizin-7-yl)amino)-5-fluoropyrimidin-2-yl)amino)-4H-benzo[b]tetrazolo[1,5-d][1,4]oxazine-4,4-diyl)dimethanol]
22 | < 100 | CC1(C)C[C@H](Nc2nc(Nc3ccc4c(c3)-n3nnnc3C3(COC3)O4)ncc2F)C[C@@H]2CCCN21 [Compound 126, N^4-((7R,8aS)-5,5-dimethyloctahydroindolizin-7-yl)-5-fluoro-N^2-(spiro[benzo[b]tetrazolo[1,5-d][1,4]oxazine-4,3′-oxetan]-8-yl)pyrimidine-2,4-diamine]
23 | 100 to 500 | CC1(C)C[C@H](Nc2nc(Nc3ccc(OC4CCNCC4)c(OC(F)F)c3)ncc2F)C[C@@H]2CCCN21 [Compound 128, N^2-(3-(difluoromethoxy)-4-(piperidin-4-yloxy)phenyl)-N^4-((7R,8aS)-5,5-dimethyloctahydroindolizin-7-yl)-5-fluoropyrimidine-2,4-diamine]

Same assay, conditions: human primary T cells stimulated with αCD3 and αCD28, 24 hours

Row | EC50 [nM] | Structure (SMILES)
24 | < 100 | CC1(O)COc2ccc(Nc3ncc(F)c(N[C@@H]4C[C@@H]5CCCN5C(C)(C)C4)n3)cc2-n2nnnc21 (stereo partly drawn) [Compound 127]
